Results published in article PMC10566475, “A cell-active cyclic peptide targeting the Nrf2/Keap1 protein–protein interaction” (Chemical Science, 2023).
Like-named read-outs stand apart in the source and are kept apart here. *1 amine or outer side, *2 acyl side, *3 side chain or, on linkers, in order; H or OH if unused. Where a SMILES comes first, the peptide text is derived from it. Bridges are numbered along the chain shown (N, C = ends). X1 = CN(CC(=O)O)c1nc(CC[*:1])cc(CC[*:2])n1; mXylylene = c1cc(C[*:1])cc(C[*:2])c1; CH2COCH2 = O=C(C[*:1])C[*:2]; CH2 = C([*:1])[*:2]

What was measured:
[1] = molecular target: T1, human Keap1 Kelch domain (A321-T609) (Homo sapiens, UniProt Q14145); experiment: Surface plasmon resonance (SPR) direct binding assay, immobilised Keap1 Kelch domain
T1 construct: human Keap1 Kelch domain (A321-T609) fused with N-terminal 6x His-tag; 6xHis (N); made in house
T1 sequence (Q14145 321-609): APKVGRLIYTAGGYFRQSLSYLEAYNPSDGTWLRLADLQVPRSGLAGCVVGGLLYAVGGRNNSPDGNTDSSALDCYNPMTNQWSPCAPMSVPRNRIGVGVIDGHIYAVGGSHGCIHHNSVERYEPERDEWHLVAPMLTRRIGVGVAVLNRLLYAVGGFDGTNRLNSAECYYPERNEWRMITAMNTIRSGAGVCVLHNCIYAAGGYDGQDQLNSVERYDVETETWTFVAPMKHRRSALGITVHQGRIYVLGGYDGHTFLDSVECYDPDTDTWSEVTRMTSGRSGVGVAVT
Source text: (§1) We based the design of our Nrf2-like cyclic peptides around the amino acid sequence of the ETGE motif (namely 12-mer ^73[…]^84L) and SAR studies reported in the literature.[9,10,12,14] The […] motif is known to adopt a beta-turn conformation upon binding to Keap1. Residues Q73-Q75 and L85 stabilise the bound conformation, L76-D77 and E79-G81 bind deep into the pocket with E79 and E82 forming electrostatic interactions with Keap1 and D77 and T80 stabilising the beta-turn via H-bonds with E78 not contributing to the binding. […] The ability of the cyclic peptides to bind to the Kelch domain of Keap1 was evaluated using surface plasma resonance (SPR), where the Kelch domain is immobilised onto a SPR sensor chip. Additionally, we assessed the ability of the peptides to inhibit the PPI between Nrf2 and the Kelch domain of Keap1 using a time-resolved FRET (TR-FRET) assay. Here, the IC50 for inhibition of the interaction between the human Keap1 Kelch domain and an Nrf2-ETGE peptide is measured.
(§2) Surface Plasmon Resonance (SPR)
(§3) Peptide affinities to the Kelch domain of Keap1 is determined in a direct binding assay using 8K surface plasmon resonance (SPR) biosensor (Cytiva) at 20°C. Immobilization of Keap1 Kelch domain on a CM5 sensor chip (Cytiva) is performed using standard amine coupling procedure. The surface is washed with 10mM NaOH, 1M NaCl before activated with EDC/NHS (Cytiva), followed by immobilization of human Keap1 Kelch domain (A321-T609) fused with N-terminal 6x His-tag7 (in 10 mM MES, pH=6.4).
(§4) Finally, the surface is deactivated by Ethanolamine. Immobilization levels are typically 5000-6000 RU.
(§5) The reference spot is treated as described, omitting the injection of Keap1. Compound concentration series are injected over the immobilized protein in increasing concentrations using single cycle kinetics (SCK) in running buffer (10 mM HEPES, 150 mM NaCl, 0.05% Tween20, 1 mM TCEP, pH 7.4). A 1:1 Langmuir interaction model is fitted to the experimental traces, enabling determination of kon, koff and […]
(§6) In the time-resolved Förster resonance energy transfer (TR-FRET) assay8 the IC50 of inhibitors which […]
(§7) are determined. The TR-FRET is measured between a Tb-labelled mAb (Anti—6-His, Tb cryptate Gold, CisBio 61H12TLB) that binds to Keap 1 Kelch domain and d2-labelled SA-biotin-peptide.
(§8) The assay was performed in 384-well white low-volume, medium binding plates (Greiner Bio One, Austria) in 20 mM HEPES pH 7.5, 150 mM NaCl, 2 mM GSH (Sigma-Aldrich, USA),1mM EDTA (Sigma-Aldrich, USA), and 0.01% Pluronic F127 (MilliporeSigma, USA), with a final reaction volume of 10 µL.
(§9) To determine the ability of synthesized peptide to inhibit PPI between the Keap1 Kelch domain and Nrf2, 1nM purified human Keap1 Kelch domain (A321-T609) fused with N-terminal 6x His-tag, 5 nM biotinylated Nrf2 peptide ([…], Genescript, USA), d2-labeled streptavidin (Revvity, USA), and […] anti-His monoclonal antibody tagged with terbium cryptate (Revvity, USA), were incubated in the presence of varying concentrations of investigated peptides for 3 h at room […]
(§10) 7 Li X, Zhang D, Hannink M, Beamer LJ. Crystallization and initial crystallographic analysis of the Kelch domain from human Keap1. Acta
(§11) 8 S. Lee, D. Ali Abed, L. J. Beamer, L. Hu, Development of a Homogeneous Time-Resolved Fluorescence Resonance Energy Transfer (TR-

[2] = molecular target: T2, interaction between the human Keap1 Kelch domain and an Nrf2-ETGE peptide (Homo sapiens, UniProt Q14145); experiment: Keap1-Nrf2 TR-FRET (HTRF) assay; type: binding
T2 construct: 1nM purified human Keap1 Kelch domain (A321-T609) fused with N-terminal 6x His-tag; made in house
T2 sequence (Q14145 321-609): as above
Source text: as §1, §2, §3, §4, §5, §6, §7, §8, §9, §10, §11
Following the incubation, the PHERAstar FSX […] microplate reader was used to measure the acceptor and donor emissions at 665 nm and 620 nm, respectively. The acceptor/donor ratio was used to calculate relative energy transfer. Data was normalized by two-point normalization using neutral and inhibitor controls (neutral control: DMSO, inhibitor control: 0.1nM 2-[[4-[carboxymethyl-(4-methoxyphenyl)sulfonylamino]naphthale n-1-yl]-(4-methoxyphenyl)sulfonylamino]acetic acid; […]
parameter logistic fit and IC50 values were calculated using Genedata screener software (Genedata, […]

[3] = Table 1, geometric mean ± sd of at least 3 independent repeats unless stated, 20°C
[4] = Table 1, single cycle kinetics, 1:1 Langmuir model
[5] = Table 1, geometric mean ± sd of at least 3 independent repeats unless stated, read-out: TR-FRET IC50

Row | SMILES | Kd [1, 3] [nM] | koff [1, 4] [s⁻¹] | kon [1, 4] [M⁻¹ s⁻¹] | IC50 [2, 5] [nM] | koff ([1]; Table 2) [s⁻¹] | kon ([1]; Table 2) [M⁻¹ s⁻¹] | Kd ([1]; Table 2, geometric mean ± sd of at least two independent repeats) [nM] | IC50 ([2]; Table 2, IC50, minimum of three repeats, read-out: TR-FRET) [nM]
1 | CC(=O)N[C@H]1CSCCc2cc(nc(N(C)CC(=O)O)n2)CCSC[C@@H](C(=O)N[C@@H](CC(C)C)C(N)=O)NC(=O)[C@H](CCC(=O)O)NC(=O)CNC(=O)[C@H]([C@@H](C)O)NC(=O)[C@H](CCC(=O)O)NC(=O)[C@@H]2CCCN2C(=O)[C@H](CC(=O)O)NC(=O)[C@H](CC(C)C)NC(=O)[C@H](CCC(N)=O)NC1=O [Peptide P1-D] (Ac-CQLDPETGECL-NH2; linker 1-10 via X1) | 25 ± 1.3 | 0.0047 | 200000 | 2.9 ± 1.4 | – | – | – | –
2 | CC(=O)N[C@@H](CC(C)C)C(=O)N[C@@H](CCC(N)=O)C(=O)N[C@H]1CSCCc2cc(nc(N(C)CC(=O)O)n2)CCSC[C@@H](C(=O)N[C@@H](CC(C)C)C(N)=O)NC(=O)[C@H](CCC(=O)O)NC(=O)CNC(=O)[C@H]([C@@H](C)O)NC(=O)[C@H](CCC(=O)O)NC(=O)[C@@H]2CCCN2C(=O)[C@H](CC(=O)O)NC1=O [Peptide P2-D] (Ac-LQCDPETGECL-NH2; linker 3-10 via X1) | 54 ± 1.2 | 0.0083 | 160000 | 4.8 ± 1.5 | – | – | – | –
3 | CC(=O)N[C@H]1CSCSC[C@@H](C(=O)N[C@@H](CC(C)C)C(N)=O)NC(=O)[C@H](CCC(=O)O)NC(=O)CNC(=O)[C@H]([C@@H](C)O)NC(=O)[C@H](CCC(=O)O)NC(=O)[C@@H]2CCCN2C(=O)[C@H](CC(=O)O)NC(=O)[C@H](CC(C)C)NC(=O)[C@H](CCC(N)=O)NC1=O [Peptide P1-A] (Ac-CQLDPETGECL-NH2; linker 1-10 via CH2) | 19 ± 1.4 | 0.0073 | 480000 | 2.9 ± 1.7 | – | – | – | –
4 | CC(=O)N[C@@H](CC(C)C)C(=O)N[C@@H](CCC(N)=O)C(=O)N[C@H]1CSCSC[C@@H](C(=O)N[C@@H](CC(C)C)C(N)=O)NC(=O)[C@H](CCC(=O)O)NC(=O)CNC(=O)[C@H]([C@@H](C)O)NC(=O)[C@H](CCC(=O)O)NC(=O)[C@@H]2CCCN2C(=O)[C@H](CC(=O)O)NC1=O [Peptide P2-A] (Ac-LQCDPETGECL-NH2; linker 3-10 via CH2) | 70 ± 1 | 0.015 | 210000 | 8.3 ± 1.1 | – | – | – | –
5 | CC(=O)N[C@H]1CSCCc2cc(nc(N(C)CC(=O)O)n2)CCSC[C@@H](C(=O)N[C@@H](CC(C)C)C(N)=O)NC(=O)[C@H](CCC(=O)O)NC(=O)CNC(=O)[C@H]([C@@H](C)O)NC(=O)[C@H](CCC(=O)O)NC(=O)[C@@H]2CCCN2C(=O)[C@H](CC(=O)O)NC(=O)[C@H](CC(C)C)NC(=O)[C@H](CCC(N)=O)NC(=O)[C@H](CC(C)C)NC1=O [Peptide P3-D] (Ac-CLQLDPETGECL-NH2; linker 1-11 via X1) | 22 ± 1.3 | 0.0028 | 140000 | 2.4 ± 1.3 | – | – | – | –
6 | CC(=O)N[C@H]1CSCC(=O)CSC[C@@H](C(=O)N[C@@H](CC(C)C)C(N)=O)NC(=O)[C@H](CCC(=O)O)NC(=O)CNC(=O)[C@H]([C@@H](C)O)NC(=O)[C@H](CCC(=O)O)NC(=O)[C@@H]2CCCN2C(=O)[C@H](CC(=O)O)NC(=O)[C@H](CC(C)C)NC(=O)[C@H](CCC(N)=O)NC1=O [Peptide P1-B] (Ac-CQLDPETGECL-NH2; linker 1-10 via CH2COCH2) | 27 ± 1.3 | 0.0087 | 410000 | 4.4 ± 1.4 | – | – | – | –
7 | CC(=O)N[C@@H](CS)C(=O)N[C@@H](CC(C)C)C(=O)N[C@@H](CCC(N)=O)C(=O)N[C@@H](CC(C)C)C(=O)N[C@@H](CC(=O)O)C(=O)N1CCC[C@H]1C(=O)N[C@@H](CCC(=O)O)C(=O)N[C@H](C(=O)NCC(=O)N[C@@H](CCC(=O)O)C(=O)N[C@@H](CS)C(=O)N[C@@H](CC(C)C)C(N)=O)[C@@H](C)O [Peptide P3] (Ac-CLQLDPETGECL-NH2) | 19 ± 1.8 | 0.0049 | 180000 | 5 ± 1.5 | – | – | – | –
8 | CC(=O)N[C@H]1CSCc2cccc(c2)CSC[C@@H](C(=O)N[C@@H](CC(C)C)C(N)=O)NC(=O)[C@H](CCC(=O)O)NC(=O)CNC(=O)[C@H]([C@@H](C)O)NC(=O)[C@H](CCC(=O)O)NC(=O)[C@@H]2CCCN2C(=O)[C@H](CC(=O)O)NC(=O)[C@H](CC(C)C)NC(=O)[C@H](CCC(N)=O)NC1=O [Peptide P1-C] (Ac-CQLDPETGECL-NH2; linker 1-10 via mXylylene) | 17 ± 1.2 | 0.0078 | 470000 | 2.1 | – | – | – | –
9 | CC(=O)N[C@@H](CS)C(=O)N[C@@H](CC(=O)O)C(=O)N1CCC[C@H]1C(=O)N[C@@H](CCC(=O)O)C(=O)N[C@H](C(=O)NCC(=O)N[C@@H](CCC(=O)O)C(=O)N[C@@H](CS)C(=O)N[C@@H](CC(C)C)C(N)=O)[C@@H](C)O [Peptide P8] | – | – | – | – | 0.0055 | 95000 | 56 ± 1.3 | 4.9 ± 1.2
10 | CC(=O)N[C@H]1Cn2cc(nn2)-c2cc(C(=O)O)cc(c2)-c2cn(nn2)C[C@@H](C(=O)N[C@@H](CC(C)C)C(N)=O)NC(=O)[C@H](CCC(=O)O)NC(=O)CNC(=O)[C@H]([C@@H](C)O)NC(=O)[C@H](CCC(=O)O)NC(=O)[C@@H]2CCCN2C(=O)[C@H](CC(=O)O)NC(=O)[C@H](CC(C)C)NC(=O)[C@H](CCC(N)=O)NC(=O)[C@H](CC(C)C)NC1=O [Peptide P3Aza-E] | 34 ± 1.3 | 0.0054 | 170000 | 4 ± 1.4 | – | – | – | –
11 | CC(=O)N[C@@H](CC(C)C)C(=O)N[C@@H](CCC(N)=O)C(=O)N[C@H]1CSCC(=O)CSC[C@@H](C(=O)N[C@@H](CC(C)C)C(N)=O)NC(=O)[C@H](CCC(=O)O)NC(=O)CNC(=O)[C@H]([C@@H](C)O)NC(=O)[C@H](CCC(=O)O)NC(=O)[C@@H]2CCCN2C(=O)[C@H](CC(=O)O)NC1=O [Peptide P2-B] (Ac-LQCDPETGECL-NH2; linker 3-10 via CH2COCH2) | 97 ± 1.4 | 0.028 | 350000 | 9.8 ± 1.2 | – | – | – | –
12 | CC(=O)N[C@@H](CS)C(=O)N[C@@H](CCC(N)=O)C(=O)N[C@@H](CC(C)C)C(=O)N[C@@H](CC(=O)O)C(=O)N1CCC[C@H]1C(=O)N[C@@H](CCC(=O)O)C(=O)N[C@H](C(=O)NCC(=O)N[C@@H](CCC(=O)O)C(=O)N[C@@H](CS)C(=O)N[C@@H](CC(C)C)C(N)=O)[C@@H](C)O [Peptide P1] (Ac-CQLDPETGECL-NH2) | 20 ± 1.2 | 0.0014 | 86000 | 4.9 ± 1.1 | – | – | – | –
13 | CC(=O)N[C@@H](CC(C)C)C(=O)N[C@@H](CCC(N)=O)C(=O)N[C@@H](CS)C(=O)N[C@@H](CC(=O)O)C(=O)N1CCC[C@H]1C(=O)N[C@@H](CCC(=O)O)C(=O)N[C@H](C(=O)NCC(=O)N[C@@H](CCC(=O)O)C(=O)N[C@@H](CS)C(=O)N[C@@H](CC(C)C)C(N)=O)[C@@H](C)O [Peptide P2] (Ac-LQCDPETGECL-NH2) | 75 | – | – | – | – | – | – | –
14 | CC(=O)N[C@@H](CC(C)C)C(=O)N[C@@H](CCC(N)=O)C(=O)N[C@H]1CSCc2cccc(c2)CSC[C@@H](C(=O)N[C@@H](CC(C)C)C(N)=O)NC(=O)[C@H](CCC(=O)O)NC(=O)CNC(=O)[C@H]([C@@H](C)O)NC(=O)[C@H](CCC(=O)O)NC(=O)[C@@H]2CCCN2C(=O)[C@H](CC(=O)O)NC1=O [Peptide P2-C] (Ac-LQCDPETGECL-NH2; linker 3-10 via mXylylene) | 36 ± 1.8 | 0.013 | 500000 | 5.6 ± 1.1 | – | – | – | –
